Laboratory results as given in patent US20110105496A1, “Methods For The Treatment Of Myosin Heavy Chain-Mediated Conditions Using 4,7-Dihydrothieno[2,3-B]Pyridine Compounds” (priority 2005, published 2011).

Tested on: alpha-MyHC
Assay: alpha-MyHC cytoblot process in neonatal rat ventricular myocytes (NRVM)
Assay type: cell-based
Conditions: NRVM, 72 hours; for EC50: alpha-MyHC cytoblot; for Max Plateau: maximum of dose response fit
[1] = Table 1, low control = vehicle only

SMILES | EC50 (Table 1, mean ± spread) [nM] | EC50 (Table 2 (esters)) [nM] | Max Plateau [1] | Max Plateau (Table 2 (esters))
CCC(=O)C1=C(CC)Nc2sc(C(=O)c3ccc(C#N)cc3)c(N)c2C1c1ccccc1 (stereo not shown) [Compound 112] |  |  | 266.67 ± 57.74 per cent fraction of low control | 
CC(=O)C1=C(C)Nc2sc(C(=O)c3ccc(Cl)c(Cl)c3)c(N)c2C1c1cccs1 (stereo not shown) [Compound 41] | 369 |  | 178.47 ± 7.82 per cent fraction of low control | 
CCOC(=O)C1=C(CC)Nc2sc(C(=O)c3cc(F)cc(F)c3)c(N)c2C1c1ccccc1 (stereo not shown) [Compound 151] |  | 10.1 |  | 273.61 per cent fraction of low control
CCC1=C(C(=O)OC(C)COC)C(c2ccccc2F)c2c(sc(C(=O)c3cccc(C#N)c3)c2N)N1 (stereo not shown) [Compound 182] |  | 60.9 |  | 251.54 ± 25.09 per cent fraction of low control
CCC(=O)C1=C(CC)Nc2sc(C(=O)c3cccnc3)c(N)c2C1c1ccnc(F)c1 (stereo not shown) [Compound 103] | 10.5 |  | 254.65 ± 31.26 per cent fraction of low control | 

Further lines, with some results ahead:

EC50 (Table 1, mean ± spread) [nM] | EC50 (Table 2 (esters)) [nM] | SMILES | Max Plateau [1] | Max Plateau (Table 2 (esters))
1720 |  | CC(=O)C1=C(C)Nc2sc(C(=O)c3ccccc3)c(N)c2C1c1ccc(C(F)(F)F)cc1 (stereo not shown) [Compound 44] | 186.67 ± 11.55 per cent fraction of low control | 
48.9 |  | CC(=O)C1=C(C)Nc2sc(C(=O)c3cccc(Br)c3)c(N)c2C1c1ccccc1 (stereo not shown) [Compound 6] | 289.34 ± 70.69 per cent fraction of low control | 
